Laboratory results: PMC3880596 (Journal of medicinal chemistry, 2013)

What was measured:
[1] = target: T1, recombinant BoNT/A LC (Clostridium botulinum, UniProt P0DPI0); conditions: cited from earlier work
[2] = test system: P. falciparum African D6 clone; experiment: microbe, parasite or virus in culture; assay type: cell-based, Plasmodium falciparum; conditions: for IC50: Plasmodium falciparum, D6, read-out: antimalarial activity IC50, CQS D6
[3] = test system: P. falciparum Indochina W2 clone; experiment: microbe, parasite or virus in culture; assay type: cell-based, Plasmodium falciparum
[4] = test system: P. falciparum multidrug resistant C235 strain (Thailand); experiment: microbe, parasite or virus in culture; assay type: cell-based, Plasmodium falciparum
[5] = in vitro; conditions: mouse, microsomes, pH 7.4
[6] = in vitro; conditions: human, microsomes, pH 7.4
[7] = target: T1, recombinant BoNT/A LC; experiment: biochemical; conditions: read-out: BoNT/A LC inhibition

T1 sequence (P0DPI0 2-448 limits assumed): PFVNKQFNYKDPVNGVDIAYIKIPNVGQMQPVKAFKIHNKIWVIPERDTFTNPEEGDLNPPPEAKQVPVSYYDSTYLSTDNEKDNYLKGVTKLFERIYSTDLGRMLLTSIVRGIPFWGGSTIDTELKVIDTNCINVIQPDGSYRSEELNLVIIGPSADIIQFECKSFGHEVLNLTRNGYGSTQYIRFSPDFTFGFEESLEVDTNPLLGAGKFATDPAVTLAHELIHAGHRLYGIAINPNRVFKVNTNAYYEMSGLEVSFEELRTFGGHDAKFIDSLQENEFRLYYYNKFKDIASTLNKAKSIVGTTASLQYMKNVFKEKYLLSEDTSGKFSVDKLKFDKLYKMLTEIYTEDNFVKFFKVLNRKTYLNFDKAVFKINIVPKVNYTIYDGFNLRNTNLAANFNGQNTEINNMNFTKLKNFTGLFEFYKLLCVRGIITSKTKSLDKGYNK

| Structure (SMILES) | selectivity index (IC50), SI = ICtox/ICP.f. activity, D6 [2] | selectivity index (IC50), SI = ICtox/ICP.f. activity, W2 [3] | selectivity index (IC50), SI = ICtox/ICP.f. activity, TM91C235 [4] | further results |
| --- | --- | --- | --- | --- |
| NCCNc1ccnc2cc(Cl)ccc12 [compound 4, N1-(7-chloroquinolin-4-yl)ethane-1,2-diamine] |  |  |  | BoNT/A LC inhibition (in words), tested as fragments [1]: poor BoNT/A LC inhibitors |
| COc1ccc(CNCCCNc2ccnc3cc(Cl)ccc23)cc1 [compound 11, N-(7-Chloroquinolin-4-yl)-N'-(4-methoxybenzyl)propane-1,3-diamine] | 86/778/95 | 86/778/95 | 86/778/95 | IC50 [2]: < 9 nM |
| Fc1ccc(CNCCNc2ccnc3cc(Cl)ccc23)cc1 [compound 12, N-(7-Chloroquinolin-4-yl)-N'-(4-fluorobenzyl)ethane-1,2-diamine] | 350/608/291 | 350/608/291 | 350/608/291 |  |
| Clc1ccc2c(NCCNCc3cnccc3Cl)ccnc2c1 [compound 20, N-[(4-Chloropyridin-3-yl)methyl]-N'-(7-chloroquinolin-4-yl)ethane-1,2-diamine] | 46/102/78 | 46/102/78 | 46/102/78 |  |
| Clc1ccc2c(NCCCNCc3ccc(Br)cc3)ccnc2c1 [compound 15, N-(4-Bromobenzyl)-N'-(7-chloroquinolin-4-yl)propane-1,3-diamine] |  |  |  | half-life [5]: ≥ 1 h; half-life [6]: ≥ 1 h |
| C=C[C@H]1C[N@@]2CC[C@H]1C[C@H]2[C@H](O)c1ccnc2ccc(OC)cc12 [Quinine] |  |  |  | BoNT/A LC inhibition (in words) [1]: poor inhibitors |
| COc1ccncc1CNCCNc1ccnc2cc(Cl)ccc12 [compound 22, N-(7-Chloroquinolin-4-yl)-N'-[(4-methoxypyridin-3-yl)methyl]ethane-1,2-diamine] | 435/4000/588 | 435/4000/588 | 435/4000/588 |  |
| Clc1ccc2c(NCCCNCc3cnccc3Cl)ccnc2c1 [compound 21, N-[(4-Chloropyridin-3-yl)methyl]-N'-(7-chloroquinolin-4-yl)propane-1,3-diamine] | 52/146/121 | 52/146/121 | 52/146/121 |  |
| Clc1ccc2c(NCCCNCc3ccncc3)ccnc2c1 [compound 17, N-(7-Chloroquinolin-4-yl)-N'-(pyridin-4-ylmethyl)propane-1,3-diamine] | 176/4146/469 | 176/4146/469 | 176/4146/469 | IC50 [2]: < 9 nM |
| Clc1ccc2c(NCCNCc3ccncc3)ccnc2c1 [compound 16, N-(7-Chloroquinolin-4-yl)-N'-(pyridin-4-ylmethyl)ethane-1,2-diamine] | 409/2528/752 | 409/2528/752 | 409/2528/752 |  |
| C=C[C@H]1C[N@@]2CC[C@H]1C[C@@H]2[C@@H](O)c1ccnc2ccc(OC)cc12 [Quinidine] |  |  |  | BoNT/A LC inhibition (in words) [1]: poor inhibitors |
| Clc1ccc2c(NCCNCc3cccnc3)ccnc2c1 [compound 18, N-(7-Chloroquinolin-4-yl)-N'-(pyridin-3-ylmethyl)ethane-1,2-diamine] | 426/1796/882 | 426/1796/882 | 426/1796/882 |  |
| Clc1ccc2c(NCCNCc3ccc(Br)cc3)ccnc2c1 [compound 14, N-(4-Bromobenzyl)-N'-(7-chloroquinolin-4-yl)ethane-1,2-diamine] | 695/1606/660 | 695/1606/660 | 695/1606/660 | half-life [5]: ≥ 1 h; half-life [6]: ≥ 1 h |
| COc1ccc(CNCCNc2ccnc3cc(Cl)ccc23)cc1 [compound 10, N-(7-Chloroquinolin-4-yl)-N'-(4-methoxybenzyl)ethane-1,2-diamine] | 406/1806/362 | 406/1806/362 | 406/1806/362 |  |
| CC(C)(C)c1ccc(CNCCCNc2ccnc3cc(Cl)ccc23)cc1 [compound 9, N-(4-Tert-butylbenzyl)-N'-(7-chloroquinolin-4-yl)propane-1,3-diamine] | 45/100/68 | 45/100/68 | 45/100/68 |  |
| Clc1ccc2c(NCCCNCc3ccccc3)ccnc2c1 [compound 7, N-Benzyl-N'-(7-chloroquinolin-4-yl)propane-1,3-diamine] | 56/169/73 | 56/169/73 | 56/169/73 | half-life [5]: ≥ 1 h; inhibition at 20 µM [7]: > 50%; half-life [6]: ≥ 1 h |
| CCN(CC)CCCC(C)Nc1c2ccc(Cl)cc2nc2ccc(OC)cc12 (centres unmarked) [Quinacrine] |  |  |  | BoNT/A LC inhibition (in words) [1]: poor inhibitors |
| CC(C)(C)c1ccc(CNCCNc2ccnc3cc(Cl)ccc23)cc1 [compound 8, N-(4-Tert-butylbenzyl)-N'-(7-chloroquinolin-4-yl)ethane-1,2-diamine] | 245/429/419 | 245/429/419 | 245/429/419 |  |
| Clc1ccc2c(NCCCNCc3cccnc3)ccnc2c1 [compound 19, N-(7-Chloroquinolin-4-yl)-N'-(pyridin-3-ylmethyl)propane-1,3-diamine] |  | 90/ /317 | 90/ /317 | half-life [5]: ≥ 1 h; half-life [6]: ≥ 1 h |
| NCCCNc1ccnc2cc(Cl)ccc12 [compound 5, N1-(7-chloroquinolin-4-yl)propane-1,3-diamine] |  |  |  | BoNT/A LC inhibition (in words), tested as fragments [1]: poor BoNT/A LC inhibitors |
| COc1ccncc1CNCCCNc1ccnc2cc(Cl)ccc12 [compound 23, N-(7-Chloroquinolin-4-yl)-N'-[(4-methoxypyridin-3-yl)methyl]propane-1,3-diamine] | 57/1040/93 | 57/1040/93 | 57/1040/93 | IC50 [2]: < 9 nM; half-life [5]: ≥ 1 h; half-life [6]: ≥ 1 h |
| CCN(CC)CCCC(C)Nc1ccnc2cc(Cl)ccc12.O=P(O)(O)O.O=P(O)(O)O (centres unmarked) [CQ, chloroquine, reference compound] |  |  |  | IC50 [2]: 14.2 nM; IC50 ([3]; Plasmodium falciparum, W2, read-out: antimalarial activity IC50, CQR W2): 634 nM; BoNT/A LC inhibition (in words) [1]: poor BoNT/A LC inhibitors; IC50 ([4]; Plasmodium falciparum, read-out: antimalarial activity IC50, MDR TM91C235): 226 nM |
| Fc1ccc(CNCCCNc2ccnc3cc(Cl)ccc23)cc1 [compound 13, N-(7-Chloroquinolin-4-yl)-N'-(4-fluorobenzyl)propane-1,3-diamine] | 110/415/185 | 110/415/185 | 110/415/185 |  |
| CCN(CC)Cc1cc(Nc2ccnc3cc(Cl)ccc23)ccc1O [Amodiaquine] |  |  |  | BoNT/A LC inhibition (in words) [1]: poor inhibitors |
| Clc1ccc2c(NCCNCc3ccccc3)ccnc2c1 [compound 6, N-Benzyl-N'-(7-chloroquinolin-4-yl)ethane-1,2-diamine] |  |  |  | IC50 [2]: < 9 nM; IC90 ([3]; Plasmodium falciparum, W2, read-out: antimalarial activity IC90, CQR W2): 14.1 nM; inhibition at 20 µM [7]: > 50% |
